Values of other authors, collected in patent US10022348B2, “Topical solution of isotretinoin” (SUN PHARMACEUTICAL INDUSTRIES LIMITED, priority 2009, dated 2018).

Tested on: patients with severe acne
Details: oral

Compound: CC1=C(/C=C/C(C)=C/C=C/C(C)=C\C(=O)O)C(C)(C)CCC1 [isotretinoin, 13-cis retinoic acid]
- long-term remission: about 80 % of patients
